Data published in patent US5300527A, “Alkylamino-and alkylamino alkyl diarylketones” (Hoechst-Roussel Pharmaceuticals Incorporated, priority 1992, dated 1994).
Structures can show the parent of a compound that is named as a salt. Where two headings read alike, the source gives them in different places.

How the values were obtained:
[1] = system: 2-phenyl-1,4-benzoquinone-induced writhing; experiment: 2-phenyl-1,4-benzoquinone-induced writhing test in mice (analgesic activity); format: in vivo; conditions: Mus musculus, sc, read-out: Inhibition in Writhing (%)
Description: Compounds of the present invention are useful as analgesic agents due to their ability to alleviate pain in mammals. […] Exptl. Biol. Med. 95, 729 (1957)].

[2] = system: scopolamine induced memory deficit; experiment: Dark Avoidance Assay (reversal of scopolamine induced memory deficit); format: in vivo; conditions: mice
Experimental: This utility can also be ascertained by determining the ability of these compounds to restore cholinergically deficient memory in the Dark Avoidance Assay. In this assay mice are tested for their ability to remember an unpleasant stimulus for a period of 24 hours. A mouse is placed in a chamber that contains a dark compartment; a strong incandescent light drives it to the dark compartment, where an electric shock is administered through metal plates on the floor. The animal is removed from the testing apparatus and tested again, 24 hours later, for the ability to remember the electric shock.
If scopolamine, an anticholinergic that is known to cause memory impairment, is administered before an animal's initial exposure to the test chamber, the animal re-enters the dark compartment shortly after being placed in the test chamber 24 hours later. This effect of scopolamine is blocked by an active test compound, resulting in a greater interval before re-entry into the dark compartment.
The results for an active compound are expressed as the percent of a group of animals in which the effect of scopolamine is blocked, as manifested by an increased interval between being placed in the test chamber and re-entering the dark compartment.

[3] = mice, dose 20 mg/kg of body wt., subcutaneous

| SMILES | inhibition in vivo at 20 mg/kg [1, 3] [%] | also measured |
| --- | --- | --- |
| CN(C)c1cccc(CC(=O)C(F)(F)c2ccccc2)c1 [1,1-Difluoro-3-[3-(dimethylamino)phenyl-1-phenyl-2-propanone] | 58 |  |
| CN(C)c1cccc(OCC(=O)Cc2cccc(Cl)c2)c1 [1-(3-Chlorophenyl)-3-[3-(dimethylamino)phenoxy]-2-propanone] | 41 |  |
| CN(C)c1cccc(CC(=O)Cc2cccc(Cl)c2)c1 [1-(3-Chlorophenyl)-3-[3-(dimethylamino)phenyl]-2-propanone] | 51 |  |
| CN(C)c1ccc(C(=O)C(F)(F)c2ccccc2)cc1 [2,2-Difluoro-1-[4-(dimethylamino)phenyl]-2-phenylethanone] | 67 |  |
| CN(C)c1cccc(C(=O)COc2cccc(Cl)c2)c1 [2-(3-Chlorophenoxy)-1-[3-(dimethylamino)phenyl]ethanone] | 69 |  |
| CN(C)c1cccc(C(=O)Cc2cccc(Cl)c2)c1.Cl [2-(3-Chlorophenyl)-1-[3-(dimethylamino)phenyl]ethanone hydrochloride] |  | % of animals with scopolamine induced memory deficit reversal ([2]; dose 0.16 mg/kg, s.c.): 40% |
| CN(C)c1cccc(C(=O)C(F)(F)c2cccc(Cl)c2)c1 [2-(3-Chlorophenyl)-2,2-difluoro-1-[3-(dimethylamino)phenyl]ethanone hydrochloride] |  | inhibition in vivo at 20 mg/kg [1]: 50% |
| CN(C)c1ccc(C(=O)C(F)c2cccc(Cl)c2)cc1 (centres unmarked) [2-(3-Chlorophenyl)-2-fluoro-1-[4-(dimethylamino)phenyl]ethanone] | 44 |  |
| CN(C)c1cccc(C(=O)C(F)(F)C(O)c2cccc(Cl)c2)c1 (centres unmarked) [3-(3-Chlorophenyl)-2,2-difluoro-3-hydroxy-1-[3-(dimethylamino)phenyl]propanone hydrochloride] | 63 |  |
| CNC(=O)Oc1ccc2c(c1)[C@]1(C)CCN(C)[C@@H]1N2C [physostigmine, reference compound] |  | % of animals with scopolamine induced memory deficit reversal ([2]; dose 0.31 mg/kg, s.c. (reference)): 20% |
| CCC(=O)O[C@](Cc1ccccc1)(c1ccccc1)[C@H](C)CN(C)C [propoxyphene, reference compound] |  | inhibition in vivo at 3.9 mg/kg [1]: 50% |
